According to patent US20070142317A1, “Topical composition for treatment of skin disorders” (QLT USA, Inc., priority 2003, published 2007):

Assays:
[1] = tested on: U-937 cells; test: Toxicity to U-937 cells (summary in Example 29); format: cell-based
[2] = tested on: monocytes and lymphocytes; test: Toxicity of dAdo to monocytes and lymphocytes; format: cell-based
[3] = tested on: Jurkat cells; test: Caspase-3 induction by flow cytometry (Example 31); format: cell-based; conditions: drug 500 μM, PHA-activated cells
Procedure: (§1) In a search for a topical agent that can locally deplete levels of T-cells in the skin, apoptotic compounds were evaluated for their mechanisms of action. The ability that […] induce apoptosis by the same mechanisms was examined by cytokine secretion. […] Caspase-3 and cytokine (IL-2, IL-6, TNF, and IFN-γ) levels were determined and compared to controls at 23 and 46 hours. FdA was incorporated to evaluate the effect of the halogen group and Ara-C for its overlapping mechanisms of action. […] At the end of the treatment period, the cells were harvested and Caspase-3 induction was determined using a flow-cytometry-based method to quantify the percentage of cells that induced Caspase-3. The level of apoptosis is expressed as “% FITC shift”. Cytokine secretion (IL-2, IL-6, TNF, and IFN-γ) was measured at the same time by ELISA and is expressed in pg/mL. […]

[4] = tested on: U-937 cells; test: Caspase-3 induction by flow cytometry (Example 31); format: cell-based; conditions: drug 500 μM, LPS-activated cells
Procedure: as §1

[5] = tested on: Jurkat cells; test: Cytokine secretion by ELISA (Example 31); format: cell-based; conditions: for Cytokine Secretion IL-2 pg/ml Mean of 3 Replicates: PHA-activated cells
Procedure: In a search for a topical agent that can locally deplete levels of T-cells in the skin, apoptotic compounds were evaluated for their mechanisms of action. The ability that […] induce apoptosis by the same mechanisms was examined by cytokine secretion. […] At the end of the treatment period, the cells were harvested and Caspase-3 induction was determined using a flow-cytometry-based method to quantify the percentage of cells that induced Caspase-3. The level of apoptosis is expressed as “% FITC shift”. Cytokine secretion (IL-2, IL-6, TNF, and IFN-γ) was measured at the same time by ELISA and is expressed in pg/mL.

[6] = tested on: U937 monocytoid cells; test: TUNEL apoptosis assay, sequential exposure to dCF then dAd (Example 21); format: cell-based; conditions: no dCF (0 uM)
Procedure: (§2) Thus, it is hypothesized that the sequential exposure of the cells to dCF, followed by deoxyadenosine (dAd) will lead to greater levels of apoptosis than dCF alone. […] The cells were then incubated in dAd for 2 more days. At the end of the treatment period, the cells were harvested for analysis by a TUNEL assay, a flow-cytometry-based method to quantify the percentage of cells that have undergone apoptosis. The level of apoptosis is expressed as “% FITC shift”. As a positive control, the cells were exposed to 5 mM camptothecin for 2 days.

[7] = tested on: Jurkat T cells; test: as above; format: cell-based; conditions: no dCF (0 uM)
Procedure: as §2

[8] = Calculated concentration in the skin assuming 7% penetration
[9] = tested on: U937 monocytoid cells; test: TUNEL assay, dAd added at different times after dCF wash-out (Example 22); format: cell-based; conditions: dCF 0 μM 2 days, wash, 2 more days
Procedure: At 0, 6, 24, and 48 hours, 50 μM dAd was added and the cells were incubated for an additional 2 days. At the end of the treatment period, the cells were harvested for analysis by a TUNEL assay, a flow-cytometry-based method to quantify the percentage of cells that have undergone apoptosis. The level of apoptosis is expressed as “% FITC shift”. As a positive control, the cells were exposed to 5 mM camptothecin for 2 days.

[10] = tested on: U937 monocytoid cells; test: TUNEL assay, simultaneous exposure to dCF and dAd (Example 22); format: cell-based
Procedure: Methods Simultaneous Exposure—U937 monocytoid cells were cultured in the presence of 0, 1, 2.5, 10, 20, 50, 100, 150, 200, and 250 μM dAdo for 2 days. […] At the end of the treatment period, the cells were harvested for analysis by a TUNEL assay, a flow-cytometry-based method to quantify the percentage of cells that have undergone apoptosis. The level of apoptosis is expressed as “% FITC shift”. As a positive control, the cells were exposed to 5 mM camptothecin for 2 days.

[11] = dAd 10 μM alone (dCF 0), 2 days
[12] = dAd 20 μM alone (dCF 0), 2 days
[13] = dAd 50 μM alone (dCF 0), 2 days
[14] = dAd 100 μM alone (dCF 0), 2 days
[15] = dAd 150 μM alone (dCF 0), 2 days
[16] = dAd 200 μM alone (dCF 0), 2 days
[17] = dAd 250 μM alone (dCF 0), 2 days

Concentration in the skin assuming 7% penetration ([8]; topical concentration 0.00005%): 0.14 µM | Concentration in the skin assuming 7% penetration ([8]; topical concentration 0.0005%): 1.39 µM | Concentration in the skin assuming 7% penetration ([8]; topical concentration 0.005%): 13.93 µM | Concentration in the skin assuming 7% penetration ([8]; topical concentration 0.01%): 27.86 µM | Concentration in the skin assuming 7% penetration ([8]; topical concentration 0.05%): 139.31 µM | Concentration in the skin assuming 7% penetration ([8]; topical concentration 0.1%): 278.62 µM | Concentration in the skin assuming 7% penetration ([8]; topical concentration 0.5%): 1393.09 µM | Concentration in the skin assuming 7% penetration ([8]; topical concentration 1%): 2786.18 µM | Concentration in the skin assuming 7% penetration ([8]; topical concentration 3%): 8358.54 µM | Concentration in the skin assuming 7% penetration ([8]; topical concentration 5%): 13930.90 µM
Structure (SMILES): Nc1ncnc2c1ncn2[C@H]1C[C@H](O)[C@@H](CO)O1 [dAd, 2′-deoxyadenosine]
concentration toxic to U-937 cells on its own [1]: 250 µM | concentrations toxic to monocytes and lymphocytes [2]: greater than 100 μM | Caspase-3 Induction % FITC Shift - Mean of 3 Replicates ([3]; 23 hr): 73% | Caspase-3 Induction % FITC Shift - Mean of 3 Replicates ([3]; 46 hr): 92% | Caspase-3 Induction % FITC Shift - Mean of 3 Replicates ([4]; 23 hr): 67% | Caspase-3 Induction % FITC Shift - Mean of 3 Replicates ([4]; 46 hr): 43% | Cytokine Secretion IL-2 pg/ml Mean of 3 Replicates ([5]; 23 hr, drug 500 μM): 17 pg/mL | IL-2 inhibition ([5]; 46 hours, compared to no drug+PHA): 61% | Cytokine Secretion IL-2 pg/ml Mean of 3 Replicates ([5]; 46 hr, drug 500 μM): 49 pg/mL | IL-2 concentration ([5]; Jurkat cells activated by PHA, 46 hours, drug 500 μM): 49 pg/mL | % FITC Shift ([6]; dAd 10 uM 2 days): 1.8% | % FITC Shift ([6]; dAd 50 uM 2 days): 2.6% | % FITC Shift ([6]; dAd 250 uM 2 days): 92% | % FITC Shift ([7]; dAd 10 uM 2 days): 1.6% | % FITC Shift ([7]; dAd 50 uM 2 days): 4.2% | % FITC Shift ([7]; dAd 250 uM 2 days): 22.2% | % FITC Shift ([9]; 50 μM dAd added 0 hr after wash-out): 1.6% | % FITC Shift ([9]; 50 μM dAd added 6 hr after wash-out): 2.2% | % FITC Shift ([9]; 50 μM dAd added 24 hr after wash-out): 2.2% | % FITC Shift ([9]; 50 μM dAd added 48 hr after wash-out): 1.0% | concentration at which dAd itself induces apoptosis ([10]; U937 cells, no dCF): 100 to 200 µM | concentrations at which dAd alone is toxic ([10]; absence of dCF, 2 days): > 100 µM | % FITC Shift ([10]; dAd 1 μM alone (dCF 0), 2 days): 1.2% | % PI Shift ([10]; dAd 1 μM alone (dCF 0), 2 days): 1.1% | % FITC Shift [10, 11]: 1.8% | % PI Shift [10, 11]: 1.5% | % FITC Shift [10, 12]: 1.7% | % PI Shift [10, 12]: 1.8% | % FITC Shift [10, 13]: 1.5% | % PI Shift [10, 13]: 3.8% | % FITC Shift [10, 14]: 33.7% | % PI Shift [10, 14]: 15.9% | % FITC Shift [10, 15]: 78.3% | % PI Shift [10, 15]: 17.3% | % FITC Shift [10, 16]: 62.6% | % PI Shift [10, 16]: 19.7% | % FITC Shift [10, 17]: 66.4% | % PI Shift [10, 17]: 17.8%
